Experimental data reported in ChEMBL document CHEMBL1156337, “Synthesis and evaluation of novel benzothiazole derivatives based on the bithiophene structure as potential radiotracers for beta-amyloid plaques in Alzheimer's disease” (Bioorg Med Chem, 2010).

Key:
[1] = Displacement of [125I]TZDM from amyloid beta (1 to 42) aggregates after 2 hrs
[2] = system: Stomach; assay: Biodistribution in stomach of Kunming mouse at 1 uCi, iv after 2 mins by gamma counting measured per organ; format: ADME, organism-based; details: in vivo
[3] = system: Kidney; assay: Biodistribution in kidney of Kunming mouse at 1 uCi, iv after 60 mins by gamma counting; format: ADME, organism-based; details: in vivo, 1 h
[4] = system: Muscle tissue; assay: Biodistribution in muscle of Kunming mouse at 1 uCi, iv after 30 mins by gamma counting; format: ADME, organism-based; details: in vivo, 0.5 h
[5] = system: Lung; assay: Biodistribution in lung of Kunming mouse at 1 uCi, iv after 60 mins by gamma counting; format: ADME, organism-based; details: in vivo, 1 h
[6] = system: Lung; assay: Biodistribution in lung of Kunming mouse at 1 uCi, iv after 240 mins by gamma counting; format: ADME, organism-based; details: in vivo, 4 h
[7] = system: Kidney; assay: Biodistribution in kidney of Kunming mouse at 1 uCi, iv after 30 mins by gamma counting; format: ADME, organism-based; details: in vivo, 0.5 h
[8] = system: Liver; assay: Biodistribution in liver of Kunming mouse at 1 uCi, iv after 120 mins by gamma counting; format: ADME, organism-based; details: in vivo, 2 h
[9] = system: Heart; assay: Biodistribution in heart of Kunming mouse at 1 uCi, iv after 240 mins by gamma counting; format: ADME, organism-based; details: in vivo, 4 h
[10] = system: Brain; assay: Biodistribution in brain of Kunming mouse at 1 uCi, iv after 60 mins by gamma counting; format: ADME, organism-based; details: in vivo, 1 h
[11] = system: Plasma; assay: Metabolic stability in mouse plasma assessed as deiodination after 2 hrs by HPLC analysis; format: ADME, cell-free
[12] = system: Brain; assay: Biodistribution in brain of Kunming mouse at 1 uCi, iv after 120 mins by gamma counting; format: ADME, organism-based; details: in vivo, 2 h
[13] = system: Blood; assay: Biodistribution in blood of Kunming mouse at 1 uCi, iv after 60 mins by gamma counting; format: ADME, organism-based; details: in vivo, 1 h
[14] = system: Spleen; assay: Biodistribution in spleen of Kunming mouse at 1 uCi, iv after 120 mins by gamma counting; format: ADME, organism-based; details: in vivo, 2 h
[15] = system: Kidney; assay: Biodistribution in kidney of Kunming mouse at 1 uCi, iv after 240 mins by gamma counting; format: ADME, organism-based; details: in vivo, 4 h
[16] = system: Spleen; assay: Biodistribution in spleen of Kunming mouse at 1 uCi, iv after 240 mins by gamma counting; format: ADME, organism-based; details: in vivo, 4 h
[17] = system: Brain; assay: Biodistribution in brain of Kunming mouse at 1 uCi, iv after 30 mins by gamma counting; format: ADME, organism-based; details: in vivo, 0.5 h
[18] = system: Lung; assay: Biodistribution in lung of Kunming mouse at 1 uCi, iv after 30 mins by gamma counting; format: ADME, organism-based; details: in vivo, 0.5 h
[19] = system: Lung; assay: Biodistribution in lung of Kunming mouse at 1 uCi, iv after 120 mins by gamma counting; format: ADME, organism-based; details: in vivo, 2 h
[20] = system: Liver; assay: Biodistribution in liver of Kunming mouse at 1 uCi, iv after 60 mins by gamma counting; format: ADME, organism-based; details: in vivo, 1 h
[21] = system: Heart; assay: Biodistribution in heart of Kunming mouse at 1 uCi, iv after 2 mins by gamma counting; format: ADME, organism-based; details: in vivo
[22] = system: Liver; assay: Biodistribution in liver of Kunming mouse at 1 uCi, iv after 240 mins by gamma counting; format: ADME, organism-based; details: in vivo, 4 h
[23] = system: Kidney; assay: Biodistribution in kidney of Kunming mouse at 1 uCi, iv after 120 mins by gamma counting; format: ADME, organism-based; details: in vivo, 2 h
[24] = system: Spleen; assay: Biodistribution in spleen of Kunming mouse at 1 uCi, iv after 30 mins by gamma counting; format: ADME, organism-based; details: in vivo, 0.5 h
[25] = system: Brain; assay: Biodistribution in brain of Kunming mouse at 1 uCi, iv after 2 mins by gamma counting; format: ADME, organism-based; details: in vivo
[26] = system: Heart; assay: Biodistribution in heart of Kunming mouse at 1 uCi, iv after 120 mins by gamma counting; format: ADME, organism-based; details: in vivo, 2 h
[27] = system: Spleen; assay: Biodistribution in spleen of Kunming mouse at 1 uCi, iv after 2 mins by gamma counting; format: ADME, organism-based; details: in vivo
[28] = Partition coefficient, log D in n-octanol/0.05 M phosphate buffer at pH 7.4; format: physicochemical
[29] = system: Heart; assay: Biodistribution in heart of Kunming mouse at 1 uCi, iv after 30 mins by gamma counting; format: ADME, organism-based; details: in vivo, 0.5 h
[30] = system: Stomach; assay: Biodistribution in stomach of Kunming mouse at 1 uCi, iv after 30 mins by gamma counting measured per organ; format: ADME, organism-based; details: in vivo, 0.5 h
[31] = system: Blood; assay: Biodistribution in blood of Kunming mouse at 1 uCi, iv after 240 mins by gamma counting; format: ADME, organism-based; details: in vivo, 4 h
[32] = system: Muscle tissue; assay: Biodistribution in muscle of Kunming mouse at 1 uCi, iv after 60 mins by gamma counting; format: ADME, organism-based; details: in vivo, 1 h
[33] = system: Spleen; assay: Biodistribution in spleen of Kunming mouse at 1 uCi, iv after 60 mins by gamma counting; format: ADME, organism-based; details: in vivo, 1 h
[34] = system: Muscle tissue; assay: Biodistribution in muscle of Kunming mouse at 1 uCi, iv after 2 mins by gamma counting; format: ADME, organism-based; details: in vivo
[35] = system: Brain; assay: Biodistribution in brain of Kunming mouse at 1 uCi, iv after 240 mins by gamma counting; format: ADME, organism-based; details: in vivo, 4 h
[36] = system: Blood; assay: Biodistribution in blood of Kunming mouse at 1 uCi, iv after 120 mins by gamma counting; format: ADME, organism-based; details: in vivo, 2 h
[37] = system: Stomach; assay: Biodistribution in stomach of Kunming mouse at 1 uCi, iv after 120 mins by gamma counting measured per organ; format: ADME, organism-based; details: in vivo, 2 h
[38] = system: Muscle tissue; assay: Biodistribution in muscle of Kunming mouse at 1 uCi, iv after 240 mins by gamma counting; format: ADME, organism-based; details: in vivo, 4 h
[39] = system: Stomach; assay: Biodistribution in stomach of Kunming mouse at 1 uCi, iv after 240 mins by gamma counting measured per organ; format: ADME, organism-based; details: in vivo, 4 h
[40] = system: Heart; assay: Biodistribution in heart of Kunming mouse at 1 uCi, iv after 60 mins by gamma counting; format: ADME, organism-based; details: in vivo, 1 h
[41] = system: Blood; assay: Biodistribution in blood of Kunming mouse at 1 uCi, iv after 30 mins by gamma counting; format: ADME, organism-based; details: in vivo, 0.5 h
[42] = system: Liver; assay: Biodistribution in liver of Kunming mouse at 1 uCi, iv after 2 mins by gamma counting; format: ADME, organism-based; details: in vivo
[43] = system: Muscle tissue; assay: Biodistribution in muscle of Kunming mouse at 1 uCi, iv after 120 mins by gamma counting; format: ADME, organism-based; details: in vivo, 2 h
[44] = system: Blood; assay: Biodistribution in blood of Kunming mouse at 1 uCi, iv after 2 mins by gamma counting; format: ADME, organism-based; details: in vivo
[45] = system: Liver; assay: Biodistribution in liver of Kunming mouse at 1 uCi, iv after 30 mins by gamma counting; format: ADME, organism-based; details: in vivo, 0.5 h
[46] = system: Lung; assay: Biodistribution in lung of Kunming mouse at 1 uCi, iv after 2 mins by gamma counting; format: ADME, organism-based; details: in vivo
[47] = system: Stomach; assay: Biodistribution in stomach of Kunming mouse at 1 uCi, iv after 60 mins by gamma counting measured per organ; format: ADME, organism-based; details: in vivo, 1 h
[48] = system: Kidney; assay: Biodistribution in kidney of Kunming mouse at 1 uCi, iv after 2 mins by gamma counting; format: ADME, organism-based; details: in vivo

COc1ccc2nc(-c3ccc(-c4ccc([125I])s4)s3)sc2c1
Drug uptake [2]: 1.31 %ID | Drug uptake [3]: 6.28 % ID/g | Drug uptake [4]: 3.42 % ID/g | Drug uptake [5]: 8.64 % ID/g | Drug uptake [6]: 6.12 % ID/g | Drug uptake [7]: 6.49 % ID/g | Drug uptake [8]: 4.33 % ID/g | Drug uptake [9]: 2.5 % ID/g | Drug uptake [10]: 0.77 % ID/g | Stability [11]: Stable | Drug uptake [12]: 0.68 % ID/g | Drug uptake [13]: 6.58 % ID/g | Drug uptake [14]: 4.92 % ID/g | Drug uptake [15]: 4.53 % ID/g | Drug uptake [16]: 4.49 % ID/g | Drug uptake [17]: 0.64 % ID/g | Drug uptake [18]: 10.28 % ID/g | Drug uptake [19]: 7.7 % ID/g | Drug uptake [20]: 5.76 % ID/g | Drug uptake [21]: 16.13 % ID/g | Drug uptake [22]: 3.23 % ID/g | Drug uptake [23]: 5.67 % ID/g | Drug uptake [24]: 7.11 % ID/g | Drug uptake [25]: 0.87 % ID/g | Drug uptake [26]: 3.48 % ID/g | Drug uptake [27]: 19.04 % ID/g | logD [28]: 3.27 | Drug uptake [29]: 5.94 % ID/g | Drug uptake [30]: 15.84 %ID | Drug uptake [31]: 5.05 % ID/g | Drug uptake [32]: 3.56 % ID/g | Drug uptake [33]: 6.24 % ID/g | Drug uptake [34]: 2.73 % ID/g | Drug uptake [35]: 0.53 % ID/g | Drug uptake [36]: 6.62 % ID/g | Drug uptake [37]: 33.95 %ID | Drug uptake [38]: 1.95 % ID/g | Drug uptake [39]: 19.37 %ID | Drug uptake [40]: 4.74 % ID/g | Drug uptake [41]: 6.55 % ID/g | Drug uptake [42]: 35.25 % ID/g | Drug uptake [43]: 2.46 % ID/g | Drug uptake [44]: 23.34 % ID/g | Drug uptake [45]: 6.98 % ID/g | Drug uptake [46]: 43.6 % ID/g | Drug uptake [47]: 20.24 %ID | Drug uptake [48]: 14.3 % ID/g

[125I]c1ccc2nc(-c3ccc(-c4cccs4)s3)sc2c1
Drug uptake [2]: 0.39 %ID | Drug uptake [3]: 8.52 % ID/g | Drug uptake [4]: 1.01 % ID/g | Drug uptake [5]: 8.01 % ID/g | Drug uptake [6]: 3.72 % ID/g | Drug uptake [7]: 7.22 % ID/g | Drug uptake [8]: 22.47 % ID/g | Drug uptake [9]: 1.31 % ID/g | Drug uptake [10]: 0.53 % ID/g | Drug uptake [12]: 0.51 % ID/g | Drug uptake [13]: 1.96 % ID/g | Drug uptake [14]: 3.5 % ID/g | Drug uptake [15]: 5.76 % ID/g | Drug uptake [16]: 2.07 % ID/g | Drug uptake [17]: 1.08 % ID/g | Drug uptake [18]: 8.04 % ID/g | Drug uptake [19]: 5.76 % ID/g | Drug uptake [20]: 29.12 % ID/g | Drug uptake [21]: 4.39 % ID/g | Drug uptake [22]: 13.82 % ID/g | Drug uptake [23]: 7.33 % ID/g | Drug uptake [24]: 6.78 % ID/g | Drug uptake [25]: 3.42 % ID/g | Drug uptake [26]: 1.5 % ID/g | Drug uptake [27]: 12.75 % ID/g | logD [28]: 3.65 | Drug uptake [29]: 2.49 % ID/g | Drug uptake [30]: 2.47 %ID | Drug uptake [31]: 1.36 % ID/g | Drug uptake [32]: 1.47 % ID/g | Drug uptake [33]: 8.61 % ID/g | Drug uptake [34]: 0.65 % ID/g | Drug uptake [35]: 0.5 % ID/g | Drug uptake [36]: 1.76 % ID/g | Drug uptake [37]: 4.39 %ID | Drug uptake [38]: 0.87 % ID/g | Drug uptake [39]: 3.24 %ID | Drug uptake [40]: 2.65 % ID/g | Drug uptake [41]: 2.12 % ID/g | Drug uptake [42]: 53.64 % ID/g | Drug uptake [43]: 1.23 % ID/g | Drug uptake [44]: 9.02 % ID/g | Drug uptake [45]: 39.81 % ID/g | Drug uptake [46]: 17.51 % ID/g | Drug uptake [47]: 4.05 %ID | Drug uptake [48]: 4 % ID/g
